Laboratory results from paper PMC5843811, “^44Sc for labeling of DOTA- and NODAGA-functionalized peptides: preclinical in vitro and in vivo investigations” (EJNMMI Radiopharmacy and Chemistry, 2016).

How the values were obtained:
[1] = tested on: AR42J tumor-bearing mice; test: PET/CT imaging of AR42J tumor-bearing mice; conditions: 3 h after i.v. injection of ~10 MBq (~1 nmol; ^44Sc-NODAGA-NOC ~3 nmol), one or two mice
Protocol: A bench-top preclinical PET scanner (G8, Sofie Biosciences, California, U.S.A. and Perkin Elmer, Massachusetts, U.S.A.) was employed for the PET scans of the tumor-bearing mice. The energy window was set to 150–650 keV. Mice were injected intravenously with ^44Sc- or ^68Ga-labeled peptides (~10 MBq, ~1 nmol per mouse) in a volume of 100–200 μL. The PET scans were performed 3 h and 5 h after injection of the ^44Sc-labeled peptides and 3 h after injection of the ^68Ga-labeled peptides, using G8 acquisition software (version 2.0.0.10). All static PET scans lasted for 20 min. During the acquisition the mice were anesthetized by inhalation of a mixture of isoflurane and oxygen. The images were reconstructed with maximum-likelihood expectation maximization (MLEM). Gauss post-reconstruction filtering was performed using VivoQuant post-processing software (version 2.10, inviCRO Imaging Services and Software, Boston, U.S.A.).

[2] = Biodistribution in AR42J tumor-bearing mice; conditions: female, CD-1 nude (athymic nude), mouse, iv, total radioactivity, i.v. ~5 MBq (~1 nmol), mean ± SD, n=3; for tissue to tissue ratio at 0.5 h / tissue uptake at 0.5 h: 30 min p.i.; for tissue to tissue ratio at 2 h / tissue uptake at 2 h: 2 h p.i.; for tissue to tissue ratio at 5 h / tissue uptake at 5 h: 5 h p.i.; for tissue uptake at 0.5 h / tissue uptake at 2 h / tissue uptake at 5 h: Biodistribution
Protocol: Female athymic nude mice (CD-1 nude), age 5–6 weeks, were obtained from Charles River Laboratories, Sulzfeld, Germany. U87MG cells and AR42J-cells were suspended in PBS (5 × 10^6 cells in 100 μL) and subcutaneously inoculated on each shoulder. Two to three weeks later, when the tumor reached a size of about 300–500 mm^3, the mice were used for the in vivo studies.
Biodistribution studies were performed with U87MG tumor and AR42J tumor-bearing mice 2 weeks after tumor cell inoculation. ^44Sc- and ^68Ga-labeled peptides (~5 MBq, ~1 nmol per mouse) were intravenously injected in a volume of 100–200 μL. Mice were sacrificed at 30 min, 2 h and 5 h after injection (p.i.) of the ^44Sc-labeled peptides. Mice which were injected with ^68Ga-labeled peptides were sacrificed at 30 min and 2 h p.i. Selected tissues and organs were collected, weighed, and counted for radioactivity using a γ-counter (Wallac Wizard 1480, Perkin Elmer). The results were listed as a percentage of the injected activity per gram of tissue mass (% IA/g), using counts of a defined volume of the original injection solution counted at the same time. The data were analyzed for significance using a two-way ANOVA test (Graph Pad Prism 6 software, version 6.05). A p-value of < 0.05 was considered statistically significant.

[3] = AR42J tumor / blood, Tumor-to-blood ratio
[4] = AR42J tumor / kidneys, Tumor-to-kidney ratio
[5] = AR42J tumor / liver, Tumor-to-liver ratio

- PET/CT distribution of radioactivity (in words) [1]: accumulated solely in tumors and kidneys
- tissue to tissue ratio at 0.5 h [2, 3]: 5.23 ± 0.22
- tissue to tissue ratio at 2 h [2, 3]: 50.3 ± 16.8
- tissue to tissue ratio at 5 h [2, 3]: 78.6 ± 6.95
- tissue to tissue ratio at 0.5 h [2, 4]: 0.8 ± 0.1
- tissue to tissue ratio at 2 h [2, 4]: 1.22 ± 0.34
- tissue to tissue ratio at 5 h [2, 4]: 0.87 ± 0.24
- tissue to tissue ratio at 0.5 h [2, 5]: 8.13 ± 0.72
- tissue to tissue ratio at 5 h [2, 5]: 11.6 ± 1.51
- tissue uptake at 0.5 h ([2]; AR42J tumor): 9.9 ± 0.66 %ID/g
- tissue uptake at 2 h ([2]; AR42J tumor): 10.2 ± 1.17 %ID/g
- tissue uptake at 5 h ([2]; AR42J tumor): 10.8 ± 0.37 %ID/g
- tissue uptake at 5 h ([2]; adrenals): 2.87 ± 0.95 %ID/g
- tissue uptake at 0.5 h ([2]; blood): 1.89 ± 0.08 %ID/g
- tissue uptake at 2 h ([2]; blood): 0.22 ± 0.06 %ID/g
- tissue uptake at 5 h ([2]; blood): 0.14 ± 0.01 %ID/g
- tissue uptake at 0.5 h ([2]; bone): 1.38 ± 0.17 %ID/g
- tissue uptake at 5 h ([2]; bone): 0.46 ± 0.06 %ID/g
- tissue uptake at 0.5 h ([2]; brain): 0.09 ± 0.01 %ID/g
- tissue uptake at 5 h ([2]; brain): 0.06 ± 0.01 %ID/g
- tissue uptake at 5 h ([2]; heart): 0.3 ± 0.04 %ID/g
- tissue uptake at 0.5 h ([2]; intestines, 5 MBq per mouse): 0.74 ± 0.1 %ID/g
- tissue uptake at 2 h ([2]; intestines): 0.29 ± 0.07 %ID/g
- tissue uptake at 5 h ([2]; intestines): 0.38 ± 0.06 %ID/g
- tissue uptake at 0.5 h ([2]; kidneys): 12.4 ± 1.41 %ID/g
- tissue uptake at 2 h ([2]; kidneys): 8.64 ± 1.62 %ID/g
- tissue uptake at 5 h ([2]; kidneys): 13 ± 2.98 %ID/g
- tissue uptake at 0.5 h ([2]; liver): 1.22 ± 0.11 %ID/g
- tissue uptake at 2 h ([2]; liver): 0.88 ± 0.15 %ID/g
- tissue uptake at 5 h ([2]; liver): 0.94 ± 0.12 %ID/g
- tissue uptake at 0.5 h ([2]; lung): 4.28 ± 0.03 %ID/g
- tissue uptake at 2 h ([2]; lung): 1.19 ± 0.28 %ID/g
- tissue uptake at 5 h ([2]; lung): 0.89 ± 0.14 %ID/g
- tissue uptake at 0.5 h ([2]; muscle): 0.66 ± 0.08 %ID/g
- tissue uptake at 5 h ([2]; muscle): 0.26 ± 0.07 %ID/g
- tissue uptake at 0.5 h ([2]; pancreas, 5 MBq per mouse): 1.6 ± 0.12 %ID/g
- tissue uptake at 2 h ([2]; pancreas, 5 MBq per mouse): 1.12 ± 0.07 %ID/g
- tissue uptake at 5 h ([2]; pancreas, 5 MBq per mouse): 1.35 ± 0.29 %ID/g
- tissue uptake at 0.5 h ([2]; spleen): 0.91 ± 0.2 %ID/g
- tissue uptake at 2 h ([2]; spleen): 0.38 ± 0.05 %ID/g
- tissue uptake at 5 h ([2]; spleen): 0.47 ± 0.05 %ID/g
- tissue uptake at 0.5 h ([2]; stomach, 5 MBq per mouse): 1.45 ± 0.28 %ID/g
- tissue uptake at 2 h ([2]; stomach, 5 MBq per mouse): 1.26 ± 0.22 %ID/g
- tissue uptake at 5 h ([2]; stomach, 5 MBq per mouse): 1.24 ± 0.09 %ID/g
Compound: C[C@@H](O)[C@@H]1NC(=O)[C@H](CCCCN)NC(=O)[C@@H](Cc2c[nH]c3ccccc23)NC(=O)[C@H](Cc2cccc3ccccc23)NC(=O)[C@@H](NC(=O)[C@@H](Cc2ccccc2)NC(=O)CCC(C(=O)O)N2CCN(CC(=O)O)CCN(CC(=O)O)CC2)CSSC[C@@H](C(=O)N[C@H](CO)[C@@H](C)O)NC1=O (some centres unmarked) [^44Sc-NODAGA-NOC, metal not drawn]
